In data set [1] the test system is B. anthracis Sterne (pXO1+, pXO2−). Kind of data set: microbe, parasite or virus in culture. In kind it is cell-based. The following applies: Bacillus anthracis.
The test system of data set [2] is S. flexneri. Kind of data set: microbe, parasite or virus in culture. The following applies: Shigella flexneri. In kind it is cell-based.
Data set [3] deals with trans-translation. In kind it is biochemical, E. coli. The following applies: 10 μM final concentration; DHFR template lacking the stop codon; tagging efficiency vs no inhibitor control.
Data set [4] deals with B. subtilis. The data set can be described thus: microbe, parasite or virus in culture. Type of data set: cell-based. The following applies: Bacillus subtilis, 24 h, read-out: MIC B. subtilis.
Data set [5] concerns S. aureus methicillin-susceptible strain, Newman. In kind it is cell-based.
For data set [6], the system named is Mycobacterium smegmatis. Kind of data set: microbe, parasite or virus in culture. Type of data set: cell-based. The following applies: Mycolicibacterium smegmatis, read-out: MIC Mycobacterium smegmatis.
For data set [7], the system named is B. anthracis ΔclpX+pclpX. The data set can be described thus: microbe, parasite or virus in culture. In kind it is cell-based. The following applies: Bacillus anthracis, 24 h, read-out: IC50 ΔclpX + pclpX.
Data set [8] concerns B. anthracis Sterne. In kind it is cell-based.
Data set [9] has as its system ΔclpX+pUTE29. The data set can be described thus: microbe, parasite or virus in culture. In kind it is cell-based, B. anthracis. The following applies: Bacillus anthracis, 24 h, read-out: IC50 ΔclpX + pUTE29.
For data set [10], the system named is HeLa cells. The settings on record: human.
Data set [11] has as its system B. anthracis ΔclpX. The data set can be described thus: microbe, parasite or virus in culture. In kind it is cell-based. The following applies: Bacillus anthracis, 24 h, read-out: IC50 ΔclpX.
Data set [12] deals with E. coli TolC mutant. The data set can be described thus: microbe, parasite or virus in culture. Type of data set: cell-based. The following applies: Escherichia coli, read-out: MIC E. coil TolC.
The subject of data set [13] is MRSA strain, Sanger 252. Type of data set: cell-based, S. aureus.
Data set [14] deals with WT+pUTE29 (empty vector). Kind of data set: microbe, parasite or virus in culture. In kind it is cell-based, B. anthracis. The settings on record: Bacillus anthracis, 24 h, read-out: IC50 WT + pUTE29.
Data set [15] has as its system Auto-luminescent M. tuberculosis (LuxTB). Kind of data set: microbe, parasite or virus in culture. Type of data set: cell-based. The following applies: Mycobacterium tuberculosis, read-out: IC50 M. tuberculosis.
Data set [16] concerns S. flexneri. The data set can be described thus: microbe, parasite or virus in culture. Type of data set: cell-based. The following applies: Shigella flexneri, 24 h, read-out: IC50 S. flexneri.
The test system of data set [17] is B. anthracis spores. Type of data set: cell-based.
In data set [18] the test system is B. anthracis. Type of data set: cell-based.
Data set [19] relates to WT B. anthracis Sterne. The data set can be described thus: microbe, parasite or virus in culture. In kind it is cell-based. The settings on record: Bacillus anthracis, 24 h, read-out: IC50 WT B. anthracis.
Data set [20] concerns Wild-type M. tuberculosis. Kind of data set: microbe, parasite or virus in culture. The following applies: Mycobacterium tuberculosis, read-out: MIC against M. tuberculosis. Type of data set: cell-based.
Where [21] appears, read: read-out: MIC Bacillus anthracis.
[22] abbreviates: 24 h, read-out: MIC B. anthracis.
Where [23] appears, read: 24 h, read-out: MIC S. flexneri.

In brackets after ≈: the same amount, converted by molar mass. Entries after “also recorded” stand apart in the source; their conditions may differ. Read-outs that look alike come from different tables or passages of the source.

As to `CCCn1nnnc1NC(=O)c1ccccc1` [Compound 1, N-(1-propyl-1H-tetrazol-5-y1)benzamide], the MIC in data set [1] (read-out: MIC B. anthracis) and in data set [2] (read-out: MIC S. flexneri) was greater than 500 µM throughout.

`CCCn1nnnc1NC(=O)c1cccc(Br)c1` [Compound 2, 3-bromo-N-(1-propyl-1H-tetrazol-5-yl)benzamide]: the MIC in [1] (read-out: MIC B. anthracis) is greater than 500 µM; in [2] (read-out: MIC S. flexneri) it was 250 µM (≈ 77.5 µg/mL).

Regarding `CCCn1nnnc1NC(=O)c1cccc(F)c1` [Compound 3, 3-fluoro-N-(1-propyl-1H-tetrazol-5-yl)benzamide], the MIC in data set [1] (read-out: MIC B. anthracis) and in [2] (read-out: MIC S. flexneri) was greater than 500 µM in each case.

As to `CCCn1nnnc1NC(=O)c1ccc(N(C)C)cc1` [Compound 4, 4-(dimethylamino)-N-(1-propyl-1H-tetrazol-5-yl)benzamide], the MIC in [1] (read-out: MIC B. anthracis) and in [2] (read-out: MIC S. flexneri) was greater than 500 µM in each case. In addition, in data set [3], the “% inhibition in vitro” value turned out to be 74.9%.

Take `CCCn1nnnc1NC(=O)c1ccc(N(CC)CC)cc1` [Compound 5, 4-(diethylamino)-N-(1-propyl-1H-tetrazol-5-yl)-benzamide]: the MIC in data set [1] (read-out: MIC B. anthracis) and in data set [2] (read-out: MIC S. flexneri) was greater than 500 µM each time.

Consider `CCCn1nnnc1NC(=O)C1CCCCC1` [Compound 7, N-(1-propyl-1H-tetrazol-5-yl)cyclohexane-carboxamide], for which the MIC in [1] (read-out: MIC B. anthracis) and in data set [2] (read-out: MIC S. flexneri) was greater than 500 µM throughout.

As for `CCCn1nnnc1NC(=O)C1CCCC1` [Compound 8, N-(1-propyl-1H-tetrazol-5-yl)cyclopentane-carboxamide], the MIC in data set [1] (read-out: MIC B. anthracis) and in data set [2] (read-out: MIC S. flexneri) was greater than 500 µM each time.

Take `O=C(Nc1nnn[nH]1)c1cccc(Cl)c1` [Compound 9]: the “% inhibition in vitro” value in data set [3] was 78.9%.

For the compound `O=C(Nc1ccccc1)c1cccc(Cl)c1` [Compound 10, 3-chloro-N-phenylbenzamide], the MIC in data set [1] (read-out: MIC B. anthracis) and in [2] (read-out: MIC S. flexneri) was greater than 500 µM in each case. Further, the “% inhibition in vitro” value in [3] amounted to 68.1%.

Regarding `O=C(Nc1ccncc1)c1cccc(Cl)c1` [Compound 11, 3-chloro-N-(pyridin-4-yl)benzamide], the MIC in data set [1] (read-out: MIC B. anthracis) was greater than 500 µM; in [2] (read-out: MIC S. flexneri), 500 µM (≈ 116 µg/mL). The “% inhibition in vitro” value in [3] was determined as 57.9%.

Consider `O=C(NC1CCCCC1)c1cccc(Cl)c1` [Compound 12, 3-chloro-N-cyclohexylbenzamide], for which the MIC in data set [1] (read-out: MIC B. anthracis) and in data set [2] (read-out: MIC S. flexneri) was greater than 500 µM each time. For the same compound, in data set [3], the “% inhibition in vitro” value was found to be 44.6%.

`O=C(NC1CCCC1)c1cccc(Cl)c1` [Compound 13, 3-chloro-N-cyclopentylbenzamide]: the MIC in [1] (read-out: MIC B. anthracis) and in data set [2] (read-out: MIC S. flexneri) was greater than 500 µM each time. For the same compound, the “% inhibition in vitro” value in data set [3] was 71.6%.

As to `CS(=O)(=O)NCCn1nnnc1NC(=O)c1cccc(Cl)c1` [Compound 14], in [3], the “% inhibition in vitro” value is 47.8%.

As for `O=C(Nc1nnnn1CCNS(=O)(=O)c1ccccc1)c1cccc(Cl)c1` [Compound 16, 3-chloro-N-(1-(2-(phenylsulfonamido)ethyl)-1H-tetrazol-5-yl)benzamide], the MIC in [1] (setting [21]) was found to be 400 µM (≈ 163 µg/mL). In addition, in [3], the “% inhibition in vitro” value came to 37.0%.

For `NCCn1nnnc1NC(=O)c1cccc(Cl)c1` [Compound D, N-(1-(2-aminoethyl)-1H-tetrazol-5-yl)-3-chlorobenzamide], the MIC in data set [4], in data set [1] (setting [22]) and in data set [2] (setting [23]) was greater than 200 µM each time. In data set [3], the “% inhibition in vitro” value is given as 52.3%.

In general, IC50 refers to the concentration at which inhibition is half-maximal. For `CCCn1nnnc1NC(=O)c1cccc(Cl)c1` [Compound F2, reference compound], the “Survival of S. aureus Newman” value in [5] is “only slightly reduced; also recorded: No colonies were recovered”. Further, the MIC in [6] was 25 µM (≈ 6.64 µg/mL); in data set [4], 26.1 µM (≈ 6.93 µg/mL); in data set [1] (setting [22]), 31.2 µM (≈ 8.29 µg/mL); in data set [1] (read-out: MIC B. anthracis) it was 25 µM (≈ 6.64 µg/mL); in [1] (setting [21]), 25 µM (≈ 6.64 µg/mL); in data set [2] (setting [23]), 7.8 µM (≈ 2.07 µg/mL). The MIC stood at 3.13 µM (≈ 0.832 µg/mL) in data set [2] (read-out: MIC S. flexneri), 3.1 µM (≈ 0.824 µg/mL) in data set [2] (read-out: MIC Shigella flexneri) and 12.5 µM (≈ 3.32 µg/mL) in [12]. In addition, the concentration for half-maximal inhibition (IC50) in data set [7] was 14.8 µM; in data set [9], 22.3 µM; in data set [11], 27 µM; in data set [14], 27.5 µM; in data set [15] (48 h) it was 292 µM; in [15] (72 h) it was 226 µM. In addition, the half-inhibitory concentration (IC50) in [15] (96 h) worked out at 115 µM; in [16] it was 5.95 µM; in data set [19], 17.6 µM. Also, the “Bacterial survival (cfu/ml) of B. anthracis Sterne” value in data set [8] is “significantly reduced bacterial survival in a synergistic manner”. For the same compound, the “Direct antimicrobial activity against B. anthracis Sterne” value in data set [8] is reported as “direct antimicrobial activity”. For the same compound, the “Survival of B. anthracis Sterne vs vehicle control” value in data set [8] was “negligible effect on survival”. The “Dose at which cytotoxicity in mammalian cells is seen” value in data set [10] lay in the range of 500 to 1000 µM. Moreover, the “Bacterial survival (cfu/ml) of MRSA” value in data set [13] is recorded as “significantly reduced bacterial survival in a synergistic manner”. Further, in data set [13], the “Direct antimicrobial activity against MRSA Sanger 252” value is “direct antimicrobial activity”. Besides, the “Reduction of survival of MRSA Sanger 252” value in data set [13] was “at least 10,000 fold”. Moreover, the “Survival of MRSA Sanger 252” value in data set [13] is recorded as “only slightly reduced”. The “% inhibition in vitro” value in [3] turned out to be 88.0%. Besides, in [17], the “Vegetative cells from spores (inhibition of spore germination)” value is recorded as “No vegetative cells were observed”. In addition, in data set [18], the “Killing of B. anthracis in human whole blood vs vehicle control” value is on record as “significantly enhanced killing”.

Turning to `CN(C)c1cccc2c(S(=O)(=O)NCCn3nnnc3NC(=O)c3cccc(Cl)c3)cccc12` [Dansyl-F2, 3-chloro-N-(1-(2-(5-(dimethylamino)naphthalene-1-sulfonamido)ethyl)-1H-tetrazol-5-yl)benzamide], the IC50 amounted to 6.22 µM in data set [7]; 6.28 µM in [9]; 5.93 µM in data set [11]; 9.88 µM in [14]; 181 µM in data set [15] (48 h); 100 µM in data set [15] (72 h). The 50% inhibitory concentration (IC50) was 96.4 µM in data set [15] (96 h), greater than 200 µM in [16] and 5.28 µM in [19]. Moreover, the MIC in data set [4] was 13.3 µM (≈ 6.65 µg/mL); in data set [1] (setting [22]) it was 7.8 µM (≈ 3.9 µg/mL); in [1] (setting [21]) it was 5.3 µM (≈ 2.65 µg/mL); in data set [2] (setting [23]) it was greater than 200 µM; in data set [12] it was 25 µM (≈ 12.5 µg/mL); in data set [20], roughly 50 µM (≈ 25 µg/mL). The “% inhibition in vitro” value in data set [3] was determined as 89.1%. For the same compound, the “Vegetative cells from spores (inhibition of spore germination)” value in [17] is on record as “No vegetative cells were observed”.

Regarding `CCCCCCCCCC(=O)N[C@@H](Cc1c[nH]c2ccccc12)C(=O)N[C@H](CC(N)=O)C(=O)N[C@@H](CC(=O)O)C(=O)N[C@@H]1C(=O)NCC(=O)N[C@@H](CCCN)C(=O)N[C@@H](CC(=O)O)C(=O)N[C@H](C)C(=O)N[C@@H](CC(=O)O)C(=O)NCC(=O)N[C@H](CO)C(=O)N[C@@H]([C@H](C)CC(=O)O)C(=O)N[C@@H](CC(=O)c2ccccc2N)C(=O)O[C@@H]1C` [daptomycin], the “Effect on parental and complemented B. anthracis strains” value in [8] was “not significantly affected”.

Turning to LL-37, in data set [5], the “Survival of S. aureus Newman” value is listed as “only slightly reduced”. Besides, the “Survival of B. anthracis Sterne vs vehicle control” value in data set [8] is reported as “negligible effect on survival”. Further, the “Survival of MRSA Sanger 252” value in data set [13] is given as “only slightly reduced”.

Values taken from patent US8975288B2 (priority 2013, dated 2015).
